Consider 10 molecules from patent US5389655A, “Phenylfuroxans” (Cassella AG, priority 1992, dated 1995).

Structures are written as SMILES. Where a name gives a salt, the structure may show the parent alone. Read-outs that look alike come from different tables or passages of the source.

The test system of this experiment is pulmonary artery of the guinea-pig. Kind of experiment: relaxation of guinea-pig potassium-depolarised pulmonary artery strips (inhibition of CaCl2-induced contraction). The conditions noted are these: Cavia porcellus, read-out: IC50 (concentration of the test substance which inhibits the contraction by 50%). An excerpt:
As a guanylate cyclase activator, nitrogen monoxide leads to an increase in cyclic guanosine monophosphate, which causes a relaxation in the smooth muscle and antiadhesive and antiaggregatory actions in the blood platelets. Nitrogen monoxide is additionally crucially involved in learning processes, in the regulation of the kidney function, in immune defence, in septic shock and in erectile dysfunctions. […] In this method, spiral strips of the pulmonary artery of the guinea-pig are depolarised using 40 mmol/l potassium after equilibration in calcium-free Tyrode solution. An addition of 0.5 mmol/l of CaCl2 then induces a contraction.

The mark [1] stands for this setting: spiral strips depolarised with 40 mmol/l potassium, contraction by 0.5 mmol/l CaCl2, cumulative addition, average of 4 to 6 vessel strips.

As to `COC(=O)C[S+]([O-])c1no[n+]([O-])c1-c1ccccc1` (stereo not shown) [Compound 2, 3-Phenyl-4-(methoxycarbonylmethylsulphinyl)-1,2,5-oxadiazole-2-oxide], the IC50 under setting [1] was 3 µM. On the same count and under the same terms, in the case of `CCN(CC)CCS(=O)(=O)c1no[n+]([O-])c1-c1ccccc1` [Compound 5, 3-Phenyl-4-(2-diethylaminoethylsulphonyl)-1,2,5-oxadiazole-2-oxide] it was 0.7 µM; in that of `CN(CCOc1no[n+]([O-])c1-c1ccccc1)Cc1ccccc1` [Compound 6, 3-Phenyl-4-(2-(N-benzyl-N-methylamino)ethoxy)-1,2,5-oxadiazole-2-oxide hydrochloride], 4 µM. On to `CCCCS(=O)(=O)c1no[n+]([O-])c1-c1ccccc1` [Compound 9, 3-Phenyl-4-butylsulphonyl-1,2,5-oxadiazole-2-oxide], for which the IC50 under setting [1] worked out at 0.03 µM. Still for that read-out and setting: in the case of `O=S(=O)(CCO)c1no[n+]([O-])c1-c1ccccc1` [Compound 10, 3-Phenyl-4-(2-hydroxyethylsulphonyl)-1,2,5-oxadiazole-2-oxide] it was 0.3 µM; in that of `[O-][n+]1onc(OCc2cccnc2)c1-c1ccccc1` [Compound 12, 3-Phenyl-4-(pyrid-3-ylmethoxy)-1,2,5-oxadiazole-2-oxide], 3 µM; in that of `NC(=O)C[S+]([O-])c1no[n+]([O-])c1-c1ccccc1` (stereo not shown) [Compound 19, 3-Phenyl-4-(aminocarbonylmethylsulphinyl)-1,2,5-oxadiazole-2-oxide], 2 µM. Still for that read-out and setting: to `CCS(=O)(=O)c1no[n+]([O-])c1-c1ccccc1` [Compound 20, 3-Phenyl-4-ethylsulphonyl-1,2,5-oxadiazole-2-oxide] belongs 0.05 µM. With `O=[N+]([O-])O[C@@H]1CO[C@H]2[C@@H]1OC[C@@H]2O` [Isosorbide-5-mononitrate, reference compound], the IC50 was more than 100 µM. As to `CCOC(=O)[N-]c1cn(N2CCOCC2)n[o+]1` [Molsidomine, reference compound], the IC50 under setting [1] stood at 300 µM.
